Reference: US8039514B2, “Sulfonamide compounds and use thereof” (Asahi Kasei Pharma Corporation, priority 2008, dated 2011)

Molecular target: T1, human calcium-sensing receptor (CaSR) (Homo sapiens, UniProt P41180)
T1 construct: expressed in transfected cells
T1 sequence (P41180 20-1078): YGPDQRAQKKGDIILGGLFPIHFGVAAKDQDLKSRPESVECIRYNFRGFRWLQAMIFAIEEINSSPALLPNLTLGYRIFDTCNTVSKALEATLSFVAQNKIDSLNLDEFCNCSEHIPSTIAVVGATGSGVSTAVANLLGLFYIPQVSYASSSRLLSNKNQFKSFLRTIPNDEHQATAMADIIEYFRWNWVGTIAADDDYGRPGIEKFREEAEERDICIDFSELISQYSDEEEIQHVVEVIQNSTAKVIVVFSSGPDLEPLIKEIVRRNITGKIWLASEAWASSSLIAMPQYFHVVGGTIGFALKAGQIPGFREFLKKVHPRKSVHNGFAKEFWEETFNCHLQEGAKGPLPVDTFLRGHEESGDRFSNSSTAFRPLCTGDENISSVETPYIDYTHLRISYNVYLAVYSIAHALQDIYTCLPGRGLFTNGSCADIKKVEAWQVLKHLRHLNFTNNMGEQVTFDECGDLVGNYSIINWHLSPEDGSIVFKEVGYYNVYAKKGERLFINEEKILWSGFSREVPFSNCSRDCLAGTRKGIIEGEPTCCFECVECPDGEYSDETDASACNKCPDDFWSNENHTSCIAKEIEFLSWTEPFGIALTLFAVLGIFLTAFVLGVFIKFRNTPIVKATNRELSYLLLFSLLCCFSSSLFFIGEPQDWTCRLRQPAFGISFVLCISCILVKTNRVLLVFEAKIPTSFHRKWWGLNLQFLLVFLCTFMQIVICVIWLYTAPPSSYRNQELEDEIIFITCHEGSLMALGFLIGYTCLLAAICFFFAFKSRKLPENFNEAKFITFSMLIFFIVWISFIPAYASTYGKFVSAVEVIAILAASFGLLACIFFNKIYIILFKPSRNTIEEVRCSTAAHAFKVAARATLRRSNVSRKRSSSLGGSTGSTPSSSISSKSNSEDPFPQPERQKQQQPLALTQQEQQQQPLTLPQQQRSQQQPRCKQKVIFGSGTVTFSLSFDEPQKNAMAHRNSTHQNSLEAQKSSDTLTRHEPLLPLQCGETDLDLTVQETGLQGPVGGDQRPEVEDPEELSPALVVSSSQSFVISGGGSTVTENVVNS
Assay: intracellular Ca assay, CaSR antagonist activity in HEK293/hCaSR cells
Format: cell-based
Details: Fura2-AM, inhibition of response to calcium chloride ligand solution, read-out: IC50 values according to the intracellular Ca assay (CaSR antagonist activity)
Experimental: HEK293 cells stably expressing human calcium-sensing receptor (CaSR) (termed HEK293/hCaSR cells) were used. HEK293/hCaSR cells were cultured in a culture medium [DMEM medium containing 0.5 mg/mL Geneticin, 50 Unit/mL penicillin, 50 μg/mL streptomycin and 10% fetal bovine serum (FBS), all manufactured by Invitrogen] to semiconfluent in an incubator at 37° C. under 5% carbon dioxide atmosphere.
Cultured cells were washed with phosphate buffered saline (PBS(−), manufactured by Dainippon Sumitomo Pharmaceutical Company) which had been prewarmed to 37° C., added with PBS(−) containing 10 mM ethylenediamine tetraacetic acid (EDTA), and then incubated in an incubator at 37° C. for 10 minutes. After adding the culture medium to separate the cells, cell suspension was transferred to a centrifuge tube. Cells were collected by centrifuge at 1,500 rpm for 3 minutes, and resuspended in Ca assay buffer [20 mM HEPES buffer (pH 7.4), 115 mM sodium chloride, 5.4 mM potassium chloride, 0.8 mM magnesium chloride, 0.8 mM calcium chloride, 13.8 mM D(+)-glucose (all manufactured by Wako Pure Chemicals) and 0.1% bovine serum albumin (manufactured by SIGMA)] containing 0.2% Pluronic F-127 (manufactured by Molecular Probes) and […] Fura2-AM (manufactured by DOJINDO LABORATORIES) to obtain a cell suspension of 5×10^6 cells/mL. After incubating at 37° C. for 30 minutes, the cells were washed twice with the Ca assay buffer and suspended in the same buffer to obtain a cell suspension of 1×10^6 cells/60 μL. 60 μL of the cell suspension was aliquoted to each well of a 96 well UV microplate (manufactured by Corning Co.) to give a cell plate.
The test compound was diluted with the Ca assay buffer to five times the final concentration and then 80 μL of the diluted compound was applied to each well of a 96 well round bottomed microplate (manufactured by Corning Co.) to give a sample plate. 80 μL of the Ca assay buffer containing 7.5 mM calcium chloride (i.e., ligand solution) was applied to each well of a 96 well round bottomed microplate to give a ligand plate. Then, thus prepared sample plate, ligand plate, and the cell plate were placed in Functional Drug Screening System (FDSS) 4000 (manufactured by Hamamatsu Photonics K.K.) which had been preswitched on and prewarmed to 37° C. Measurements were then carried out as follows. After incubating the cell plate for 180 seconds, fluorescence intensity was measured every two seconds (excitation wavelength; 340 nm and 380 nm, measurement wavelength; 500 nm). After the measurement for 40 seconds, 20 μL of the test compound solution from the sample plate was added to the cell plate, followed by continuous measurement for 160 seconds. Then, 20 μL of the ligand solution from the ligand plate was added to the cell plate, followed by continuous measurement for 100 seconds.
Amount of change in intracellular Ca concentration is indicated as a peak height of the ratio of the fluorescence intensity with excitation of 340 nm and 380 nm (i.e., fluorescence intensity with excitation at 340 nm/fluorescence intensity with excitation at 380 nm) that is obtained from the difference between the maximum ratio after adding the ligand solution and the ratio before adding the ligand solution. Further, when the peak height obtained from the Ca assay buffer containing no test compound has inhibition ratio of 0% while the peak height obtained from the Ca assay buffer containing no calcium chloride as a ligand solution has inhibition ratio of 100%, inhibition ratio for each test compound (i.e., CaSR antagonist activity) was calculated.

Row | Structure (SMILES) | IC50 [nM]
1 | CN(C[C@H](O)CNC(C)(C)Cc1ccc2ccccc2c1)S(=O)(=O)c1cccc(-c2ccc(C(=O)O)s2)c1 [Exp. 3-26, (R)-5-(3-(N-(2-hydroxy-3-(2-methyl-1-(naphthalen-2-yl)propan-2-ylamino)propyl)-N-methylsulfamoyl)phenyl)thiophen-2-carboxylic acid] | 300 to 1000
2 | CN(C[C@H](O)CNC(C)(C)Cc1ccc2ccccc2c1)S(=O)(=O)c1cccc(-c2ccc(C(=O)NCCC(=O)O)cc2)c1 [Exp. 3-27, (R)-3-(3′-(N-(2-hydroxy-3-(2-methyl-1-(naphthalen-2-yl)propan-2-ylamino)propyl)-N-methylsulfamoyl)biphenyl-4-ylcarboxamide)propionic acid] | 300 to 1000
3 | CN(C[C@H](O)CNC(C)(C)Cc1ccc2ccccc2c1)S(=O)(=O)c1cccc(-c2ccc(NCC(=O)O)cc2)c1 [Exp. 3-28, (R)-2-(3′-(N-(2-hydroxy-3-(2-methyl-1-(naphthalen-2-yl)propan-2-ylamino)propyl)-N-methylsulfamoyl)biphenyl-4-ylamino)acetic acid] | 300 to 1000
4 | CN(C[C@H](O)CNC(C)(C)Cc1ccc2ccccc2c1)S(=O)(=O)c1ccc(-c2ccccc2C(=O)O)cc1 [Exp. 3-29, (R)-4′-(N-(2-hydroxy-3-(2-methyl-1-(naphthalen-2-yl)propan-2-ylamino)propyl)-N-methylsulfamoyl)biphenyl-2-carboxylic acid] | 300 to 1000
5 | CN(C[C@H](O)CNC(C)(C)Cc1ccc2ccccc2c1)S(=O)(=O)c1ccc(-c2ccc(C(=O)O)cc2)cc1 [Exp. 3-31, (R)-4′-(N-(2-hydroxy-3-(2-methyl-1-(naphthalen-2-yl)propan-2-ylamino)propyl)-N-methylsulfamoyl)biphenyl-4-carboxylic acid] | 300 to 1000
6 | Cc1ccc(-c2ccc(S(=O)(=O)N(C)C[C@H](O)CNC(C)(C)Cc3ccc4ccccc4c3)cc2)cc1C(=O)O [Exp. 3-32, (R)-4′-(N-(2-hydroxy-3-(2-methyl-1-(naphthalen-2-yl)propan-2-ylamino)propyl)-N-methylsulfamoyl)-4-methylbiphenyl-3-carboxylic acid] | 1000 to 3000
7 | Cc1cc(-c2ccc(S(=O)(=O)N(C)C[C@H](O)CNC(C)(C)Cc3ccc4ccccc4c3)cc2)ccc1C(=O)O [Exp. 3-33, (R)-4′-(N-(2-hydroxy-3-(2-methyl-1-(naphthalen-2-yl)propan-2-ylamino)propyl)-N-methylsulfamoyl)-3-methylbiphenyl-4-carboxylic acid] | 300 to 1000
8 | CN(C[C@H](O)CNC(C)(C)Cc1ccc2ccccc2c1)S(=O)(=O)c1ccc(-c2ccc(C(=O)O)c(N)c2)cc1 [Exp. 3-34, (R)-3-amino-4′-(N-(2-hydroxy-3-(2-methyl-1-(naphthalen-2-yl)propan-2-ylamino)propyl)-N-methylsulfamoyl)biphenyl-4-carboxylic acid] | 1000 to 3000
9 | CN(C[C@H](O)CNC(C)(C)Cc1ccc2ccccc2c1)S(=O)(=O)c1ccc(-c2ccc(C(=O)O)cc2F)cc1 [Exp. 3-35, (R)-2-fluoro-4′-(N-(2-hydroxy-3-(2-methyl-1-(naphthalen-2-yl)propan-2-ylamino)propyl)-N-methylsulfamoyl)biphenyl-4-carboxylic acid] | 300 to 1000
10 | CN(C[C@H](O)CNC(C)(C)Cc1ccc2ccccc2c1)S(=O)(=O)c1ccc(-c2cc3c(c(C(=O)O)c2)OCC3)cc1 [Exp. 3-36, (R)-5-(4-(N-(2-hydroxy-3-(2-methyl-1-(naphthalen-2-yl)propan-2-ylamino)propyl)-N-methylsulfamoyl)phenyl)-2,3-dihydrobenzofuran-7-carboxylic acid] | 1000 to 3000
11 | CN(C[C@H](O)CNC(C)(C)Cc1ccc2ccccc2c1)S(=O)(=O)c1ccc(-c2cccc(C=CC(=O)O)c2)cc1 [Exp. 3-39, (R)-3-(4′-(N-(2-hydroxy-3-(2-methyl-1-(naphthalen 2-yl)propan-2-ylamino)propyl)-N-methylsulfamoyl)biphenyl-3-yl)acrylic acid] | 300 to 1000

Further lines, results first:

Row | IC50 [nM] | Structure (SMILES)
12 | 300 to 1000 | CN(C[C@H](O)CNC(C)(C)Cc1ccc2ccccc2c1)S(=O)(=O)c1cccc(-c2ccc(NC(=O)CCC(=O)O)cc2)c1 [Exp. 3-21, (R)-4-(3′-(N-(2-hydroxy-3-(2-methyl-1-(naphthalen-2-yl)propan-2-ylamino)propyl)-N-methylsulfamoyl)biphenyl-4-ylamino)-4-oxobutanoic acid]
13 | 300 to 1000 | COCc1cc(-c2cccc(S(=O)(=O)N(C)C[C@H](O)CNC(C)(C)Cc3ccc4ccccc4c3)c2)ccc1C(=O)O [Exp. 3-22, (R)-3′-(N-(2-hydroxy-3-(2-methyl-1-(naphthalen-2-yl)propan-2-ylamino)propyl)-N-methylsulfamoyl)-3-(methoxymethyl)biphenyl-4-carboxylic acid]
14 | ≤ 300 | CN(C[C@H](O)CNC(C)(C)Cc1ccc2ccccc2c1)S(=O)(=O)c1cccc(-c2cc(F)cc(C(=O)O)c2)c1 [Exp. 3-23, (R)-5-fluoro-3′-(N-(2-hydroxy-3-(2-methyl-1-(naphthalen-2-yl)propan-2-ylamino)propyl)-N-methylsulfamoyl)biphenyl-3-carboxylic acid]
15 | 300 to 1000 | CN(C[C@H](O)CNC(C)(C)Cc1ccc2ccccc2c1)S(=O)(=O)c1cccc(-c2ccc(C(=O)O)c(O)c2)c1 [Exp. 3-24, (R)-3-hydroxy-3′-(N-(2-hydroxy-3-(2-methyl-1-(naphthalen-2-yl)propan-2-ylamino)propyl)-N-methylsulfamoyl)biphenyl-4-carboxylic acid]
16 | 300 to 1000 | CN(C[C@H](O)CNC(C)(C)Cc1ccc2ccccc2c1)S(=O)(=O)c1cccc(-c2cc(F)c(C(=O)O)c(F)c2)c1 [Exp. 3-25, (R)-3,5-difluoro-3′-(N-(2-hydroxy-3-(2-methyl-1-(naphthalen-2-yl)propan-2-ylamino)propyl)-N-methylsulfamoyl)biphenyl-4-carboxylic acid]
17 | ≤ 300 | CN(C[C@H](O)CNC(C)(C)Cc1ccc2ccccc2c1)S(=O)(=O)c1ccc(-c2cccc(C(=O)O)c2)cc1 [Exp. 3-30, (R)-4′-(N-(2-hydroxy-3-(2-methyl-1-(naphthalen-2-yl)propan-2-ylamino)propyl)-N-methylsulfamoyl)biphenyl-3-carboxylic acid]
